Reference: US20220290122A1 (Whitehead Institute for Biomedical Research, priority 2019, published 2022)

Tested on: MCART1-null Jurkat cells
Assay: Cell proliferation assay with metabolite supplementation (metabolite rescue)
Assay type: cell-based, human
Details: RPMI media; 1 mM pyruvate and 100 μg/ml uridine, 1 mM formate or 0.1 mM/16 μM hypoxanthine/thymidine added at the beginning of the culture period; FIG. 5M
Protocol: Unless otherwise indicated, Jurkat and K562 cells were cultured in RPMI (Life Technologies) supplemented with 10% Inactivated Fetal Calf Serum (IFS, Sigma and Gemini), 2 mM glutamine, and penicillin/streptomycin. HeLa, HEK-293T, and Ben cells were cultured in DMEM (Life Technologies) supplemented with 10% IFS and penicillin/streptomycin. […] To compare proliferation of cells in glucose to proliferation in galactose, RPMI without glucose (Life Technologies) was supplemented with dialyzed IFS and either 10 mM glucose or galactose. All cell lines were maintained at 37° C. and 5% CO2.
10,000 cells per well were seeded into 96-well plates in triplicate. Cell titer glo reagent (Promega) was added to one plate 1 hour after seeding and luminescence was measured, while a second plate was read-out 4 days after seeding. Number of doublings in 4 days was determined by calculating the loge fold-change in signal between day 0 and 4. For cell counting experiments, 100,000 cells/ml were seeded in a 6-well plate in triplicates and counted immediately after seeding and from then on every 24 hours for 5 sequential days.

O=CO [formate]
rescue of the proliferation defect of MCART1-null cells by addition of metabolites to the media: not rescued
